Test results published in patent US10669283B2, “Compound and pharmacologically acceptable salt thereof” (MEIJI SEIKA PHARMA CO., LTD., priority 2016, dated 2020).

System: PDE4
Experiment: PDE4 inhibition, scintillation proximity assay (SPA);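 also: A below 100 nM B 100 to below 1000 nM C 1000 nM or more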
Format: biochemical
Conditions: scintillation proximity assay (SPA); evaluated as classes A, B, C; read-out: PDE4 Inhibitory Activity (concentration for the inhibition rate of 50%)
Experimental: The PDE4 inhibitory activity was measured using scintillation proximity assay (SPA) as follows. A sample compound dissolved in dimethyl sulfoxide was diluted 1:10 in reaction buffer solution which contained 50 mM of Tris-HCl with pH 7.4, 8.3 mM of MgCl2, 1.7 mM of EGTA, and 3 mg/mL of bovine serum albumin (BSA). Then, 10 μL of the diluted solution was added in a 96-well assay plate. Moreover, 50 μL of PDE4 diluted 1:375 in the reaction buffer solution was added, and then 40 μL of [2,8-^3H]-adenosine-3′,5′-cyclic phosphate triethylammonium salt diluted 1:1000 in the reaction buffer solution was added. The mixture was allowed to stand at room temperature for 120 minutes. Thereafter, […] of RNA binding YSi-SPA beads suspension containing ZnSO4 was added and the mixture was allowed to stand at room temperature for 15 minutes, followed by adsorption of the enzyme reaction product to the beads. After that, the radioactivity was measured using a liquid scintillation counter for a 96-well plate. The mixture without the enzyme preparation added but only the reaction buffer solution added is a blank, and the mixture with the enzyme preparation added and only dimethyl sulfoxide added instead of the sample solution is a control.

Compound | IC50 [nM]
CSc1cc(-c2nccs2)c2oc(N3CC4CCCC(C3)N4)nc2c1 [Example 41, 2-(3,9-Diazabicyclo[3.3.1]nonan-3-yl)-5-(methylthio)-7-(thiazol-2-yl)benzo[d]oxazole] | < 100
C[S+]([O-])c1cc(-c2nccs2)c2oc(N3CC4CCC(C3)N4)nc2c1 (centres unmarked) [Example 42, 2-(3,8-Diazabicyclo[3.2.1]octan-3-yl)-5-(methylsulfinyl)-7-(thiazol-2-yl)benzo[d]oxazole] | < 100
C[S+]([O-])c1cc(-c2nccs2)c2oc(N3CC4CC(C3)N4)nc2c1 (centres unmarked) [Example 43, 2-(3,6-Diazabicyclo[3.1.1]heptan-3-yl)-5-(methylsulfinyl)-7-(thiazol-2-yl)benzo[d]oxazole] | < 100
C[S+]([O-])c1cc(-c2nccs2)c2oc(N3CC4CCCC(C3)N4)nc2c1 (centres unmarked) [Example 44, 2-(3,9-Diazabicyclo[3.3.1]nonan-3-yl)-5-(methylsulfinyl)-7-(thiazol-2-yl)benzo[d]oxazole] | < 100
CS(=O)(=O)c1cc(-c2nccs2)c2oc(N3CC4CCC(C3)N4)nc2c1 [Example 45, 2-(3,8-Diazabicyclo[3.2.1]octan-3-yl)-5-(methylsulfonyl)-7-(thiazol-2-yl)benzo[d]oxazole] | < 100
CS(=O)(=O)c1cc(-c2nccs2)c2oc(N3CC4CC(C3)N4)nc2c1 [Example 46, 2-(3,6-Diazabicyclo[3.1.1]heptan-3-yl)-5-(methylsulfonyl)-7-(thiazol-2-yl)benzo[d]oxazole] | < 100
CS(=O)(=O)c1cc(-c2nccs2)c2oc(N3CC4CCCC(C3)N4)nc2c1 [Example 47, 2-(3,9-Diazabicyclo[3.3.1]nonan-3-yl)-5-(methylsulfonyl)-7-(thiazol-2-yl)benzo[d]oxazole] | < 100
CC(=O)Nc1cc(-c2nccs2)c2oc(N3CC4CCCC(C3)N4)nc2c1 [Example 48, N-(2-(3,9-diazabicyclo[3.3.1]nonan-3-yl)-7-(thiazol-2-yl)benzo[d]oxazol-5-yl)acetamide] | < 100
CC(=O)Nc1cc(-c2nccs2)c2oc(N3CC4CC(C3)N4)nc2c1 [Example 49, N-(2-(3,6-diazabicyclo[3.1.1]heptan-3-yl)-7-(thiazol-2-yl)benzo[d]oxazol-5-yl)acetamide] | 100 to 1000
CC(=O)Nc1cc(-c2nccs2)c2oc(N3CC4CCC(C3)N4)nc2c1 [Example 50, N-(2-(3,8-diazabicyclo[3.2.1]octan-3-yl)-7-(thiazol-2-yl)benzo[d]oxazol-5-yl)acetamide] | < 100
FC(F)(F)c1cc(-c2nccs2)c2oc(N3CC4CCC(C3)N4)nc2c1 [Example 51, 2-(3,8-Diazabicyclo[3.2.1]octan-3-yl)-7-(thiazol-2-yl)-5-(trifluoromethyl)benzo[d]oxazole] | < 100
FC(F)(F)c1cc(-c2nccs2)c2oc(N3CC4CC(C3)N4)nc2c1 [Example 52, 2-(3,6-Diazabicyclo[3.1.1]heptan-3-yl)-7-(thiazol-2-yl)-5-(trifluoromethyl)benzo[d]oxazole] | < 100
FC(F)(F)c1cc(-c2nccs2)c2oc(N3CC4CCCC(C3)N4)nc2c1 [Example 53, 2-(3,9-Diazabicyclo[3.3.1]nonan-3-yl)-7-(thiazol-2-yl)-5-(trifluoromethyl)benzo[d]oxazole] | < 100
FC(F)(F)Oc1cc(-c2nccs2)c2oc(N3CC4CCC(C3)N4)nc2c1 [Example 54, 2-(3,8-Diazabicyclo[3.2.1]octan-3-yl)-7-(thiazol-2-yl)-5-(trifluoromethoxy)benzo[d]oxazole] | < 100
FC(F)(F)Oc1cc(-c2nccs2)c2oc(N3CC4CCCC(C3)N4)nc2c1 [Example 55, 2-(3,9-Diazabicyclo[3.3.1]nonan-3-yl)-7-(thiazol-2-yl)-5-(trifluoromethoxy)benzo[d]oxazole] | < 100
FC(F)(F)Oc1cc(-c2nccs2)c2oc(N3CC4CC(C3)N4)nc2c1 [Example 56, 2-(3,6-Diazabicyclo[3.1.1]heptan-3-yl)-7-(thiazol-2-yl)-5-(trifluoromethoxy)benzo[d]oxazole] | < 100
NS(=O)(=O)c1cc(-c2nccs2)c2oc(N3CC4CCC(C3)N4)nc2c1 [Example 57, 2-(3,8-Diazabicyclo[3.2.1]octan-3-yl)-7-(thiazol-2-yl) benzo[d]oxazole-5-sulfonamide] | < 100
NS(=O)(=O)c1cc(-c2nccs2)c2oc(N3CC4CC(C3)N4)nc2c1 [Example 58, 2-(3,6-Diazabicyclo[3.1.1]heptan-3-yl)-7-(thiazol-2-yl)benzo[d]oxazole-5-sulfonamide] | < 100
NS(=O)(=O)c1cc(-c2nccs2)c2oc(N3CC4CCCC(C3)N4)nc2c1 [Example 59, 2-(3,9-Diazabicyclo[3.3.1]nonan-3-yl)-7-(thiazol-2-yl) benzo[d]oxazole-5-sulfonamide] | < 100

Compound | IC50 [nM]
COc1cc(-c2nccs2)c2oc(N3CC4CCC(C3)N4)nc2c1 [Example 60, 2-(3,8-Diazabicyclo[3.2.1]octan-3-yl)-5-methoxy-7-(thiazol-2-yl)benzo[d]oxazole] | < 100
COc1cc(-c2nccs2)c2oc(N3CC4CC(C3)N4)nc2c1 [Example 61, 2-(3,6-Diazabicyclo[3.1.1]heptan-3-yl)-5-methoxy-7-(thiazol-2-yl)benzo[d]oxazole] | < 100
COc1cc(-c2nccs2)c2oc(N3CC4CCCC(C3)N4)nc2c1 [Example 62, 2-(3,9-Diazabicyclo[3.3.1]nonan-3-yl)-5-methoxy-7-(thiazol-2-yl)benzo[d]oxazole] | < 100
Oc1cc(-c2nccs2)c2oc(N3CC4CCC(C3)N4)nc2c1 [Example 63, 2-(3,8-Diazabicyclo[3.2.1]octan-3-yl)-7-(thiazol-2-yl) benzo[d]oxazol-5-ol] | < 100
Oc1cc(-c2nccs2)c2oc(N3CC4CC(C3)N4)nc2c1 [Example 64, 2-(3,6-Diazabicyclo[3.1.1]heptan-3-yl)-7-(thiazol-2-yl)benzo[d]oxazol-5-ol] | < 100
Oc1cc(-c2nccs2)c2oc(N3CC4CCCC(C3)N4)nc2c1 [Example 65, 2-(3,9-Diazabicyclo[3.3.1]nonan-3-yl)-7-(thiazol-2-yl) benzo[d]oxazol-5-ol] | < 100
FC(F)(F)COc1cc(-c2nccs2)c2oc(N3CC4CCC(C3)N4)nc2c1 [Example 66, 2-(3,8-Diazabicyclo[3.2.1]octan-3-yl)-7-(thiazol-2-yl)-5-(2,2,2-trifluoroethoxy)benzo[d]oxazole] | < 100
FC(F)(F)COc1cc(-c2nccs2)c2oc(N3CC4CC(C3)N4)nc2c1 [Example 67, 2-(3,6-Diazabicyclo[3.1.1]heptan-3-yl)-7-(thiazol-2-yl)-5-(2,2,2-trifluoroethoxy)benzo[d]oxazole] | < 100
CC(C)Oc1cc(-c2nccs2)c2oc(N3CC4CCC(C3)N4)nc2c1 [Example 68, 2-(3,8-Diazabicyclo[3.2.1]octan-3-yl)-5-isopropoxy-7-(thiazol-2-yl)benzo[d]oxazole] | < 100
COCCOc1cc(-c2nccs2)c2oc(N3CC4CCC(C3)N4)nc2c1 [Example 69, 2-(3,8-Diazabicyclo[3.2.1]octan-3-yl)-5-(2-methoxyethoxy)-7-(thiazol-2-yl)benzo[d]oxazole] | < 100
c1csc(-c2cc(OCC3COC3)cc3nc(N4CC5CCC(C4)N5)oc23)n1 [Example 70, 2-(3,8-Diazabicyclo[3.2.1]octan-3-yl)-5-(oxetan-3-ylmethoxy)-7-(thiazol-2-yl)benzo[d]oxazole] | < 100
OCC(CO)COc1cc(-c2nccs2)c2oc(N3CC4CCC(C3)N4)nc2c1 [Example 71, 2-(((2-(3,8-Diazabicyclo[3.2.1]octan-3-yl)-7-(thiazol-2-yl)benzo[d]oxazol-5-yl)oxy)methyl)propane-1,3-diol] | < 100
C=CCOc1cc(-c2nccs2)c2oc(N3CC4CCC(C3)N4)nc2c1 [Example 72, 5-(Allyloxy)-2-(3,8-diazabicyclo[3.2.1]octan-3-yl)-7-(thiazol-2-yl)benzo[d]oxazole] | < 100
N#CCOc1cc(-c2nccs2)c2oc(N3CC4CCC(C3)N4)nc2c1 [Example 73, 2-((2-(3,8-Diazabicyclo[3.2.1]octan-3-yl)-7-(thiazol-2-yl)benzo[d]oxazol-5-yl)oxy)acetonitrile] | < 100
O=C(O)COc1cc(-c2nccs2)c2oc(N3CC4CCC(C3)N4)nc2c1 [Example 74, 2-((2-(3,8-Diazabicyclo[3.2.1]octan-3-yl)-7-(thiazol-2-yl)benzo[d]oxazol-5-yl)oxy)acetic acid] | < 100
COc1ccc(-c2nccs2)c2oc(N3CC4CCC(C3)N4)nc12 [Example 75, 2-(3,8-Diazabicyclo[3.2.1]octan-3-yl)-4-methoxy-7-(thiazol-2-yl)benzo[d]oxazole] | < 100
COc1ccc(-c2nccs2)c2oc(N3CC4CC(C3)N4)nc12 [Example 76, 2-(3,6-Diazabicyclo[3.1.1]heptan-3-yl)-4-methoxy-7-(thiazol-2-yl)benzo[d]oxazole] | < 100
COc1ccc(-c2nccs2)c2oc(N3CC4CCCC(C3)N4)nc12 [Example 77, 2-(3,9-Diazabicyclo[3.3.1]nonan-3-yl)-4-methoxy-7-(thiazol-2-yl)benzo[d]oxazole] | < 100
Oc1ccc(-c2nccs2)c2oc(N3CC4CCC(C3)N4)nc12 [Example 78, 2-(3,8-Diazabicyclo[3.2.1]octan-3-yl)-7-(thiazol-2-yl) benzo[d]oxazol-4-ol] | < 100
